Patent US20150291625A1 (PFIZER INC., priority 2012, published 2015)
Values joined by “and” are separate entries in the source; they are usually repeats but may differ in a detail not shown here. Identical values can stand only once. Counter-ions that a name gives are not always drawn. Like-named read-outs stand apart in the source and are kept apart here.

Experiments:
[1] = target: T1, D1 (Homo sapiens, UniProt P21728); assay: Human D1 receptor binding assay ([3H]-SCH23390 competition)
[2] = target: T1, D1; assay: D1 cAMP HTRF assay (HEK293T/hD1#1 stable cell line); format: cell-based; set-up: expressed in transfected cells
In short: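 Cells from a stable human D1 HEK293T line in PBS/0.5 μM IBMX were incubated with compound for 30 min at room temperature, and cAMP was then detected by competitive HTRF (1 h, room temperature). A cAMP standard curve converted ratios to cAMP, giving ratio-based and cAMP-based EC50 values.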

[3] = Human D1 Receptor Binding, Ki (nM), Geometric mean of 2-4 determinations, a: >=5 determinations, d: single determination
[4] = read-out: Human D1 Receptor Binding, Ki (nM), Geometric mean of 2-4 determinations, a: >=5 determinations, d: single determination

T1 sequence (P21728 whole entry): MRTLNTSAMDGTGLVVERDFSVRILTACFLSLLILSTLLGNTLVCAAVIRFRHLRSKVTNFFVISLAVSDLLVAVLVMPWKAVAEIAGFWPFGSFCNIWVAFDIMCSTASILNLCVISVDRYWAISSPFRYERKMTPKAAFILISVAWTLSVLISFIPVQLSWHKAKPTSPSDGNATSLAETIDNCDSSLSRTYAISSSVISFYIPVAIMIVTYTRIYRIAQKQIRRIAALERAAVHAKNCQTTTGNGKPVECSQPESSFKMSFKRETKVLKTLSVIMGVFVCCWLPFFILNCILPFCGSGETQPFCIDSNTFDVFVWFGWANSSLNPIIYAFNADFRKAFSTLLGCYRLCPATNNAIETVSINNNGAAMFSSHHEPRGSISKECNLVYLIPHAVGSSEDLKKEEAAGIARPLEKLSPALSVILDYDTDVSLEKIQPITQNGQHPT

| Structure (SMILES) | Ki [1, 3] [nM] | EC50 [2] | Ki [1, 4] [nM] |
| --- | --- | --- | --- |
| Cc1ccc2nccn2c1-c1ccc(Oc2nccc3occc23)cc1O [Example 153, 5-(furo[3,2-c]pyridin-4-yloxy)-2-(6-methylimidazo[1,2-a]pyridin-5-yl)phenol] | 5.99 | 51.8 nM |  |
| Cc1n[nH]c(=O)c(C)c1-c1ccc(Oc2nccc3occc23)cc1Cl [Example 160, 5-[2-chloro-4-(furo[3,2-c]pyridin-4-yloxy)phenyl]-4,6-dimethylpyridazin-3(2H)-one] | 5.24 | 13 nM |  |
| Cc1ccc2nccn2c1-c1ccc(Oc2nccc3occc23)cc1 [Example 161, 4-[4-(6-methylimidazo[1,2-a]pyridin-5-yl)phenoxy]furo[3,2-c]pyridine] |  | 94.7 nM and 173 nM | 8.49 |
| Cc1cc(Oc2nccc3occc23)cc(C)c1-c1c(C)ncc2nccn12 [Example 162] | 10.6 | 251 nM and 446 nM |  |
| COc1cc(Oc2nccc3occc23)ccc1-c1cccc(=O)n1C [Example 166, 6-[4-(furo[3,2-c]pyridin-4-yloxy)-2-methoxyphenyl]-1-methylpyridin-2(1H)-one] | 22.9 | 310 nM |  |
| COc1ccc2cnccc2c1-c1ccc(Oc2nccc3occc23)cc1 [Example 168, 5-[4-(furo[3,2-c]pyridin-4-yloxy)phenyl]-6-methoxyisoquinoline, trifluoroacetate salt] | 28.6 | 458 nM |  |
| Clc1cc(Oc2nccc3occc23)ccc1-c1cncc2nccn12 [Example 170, 5-[2-chloro-4-(furo[3,2-c]pyridin-4-yloxy)phenyl]imidazo[1,2-a]pyrazine] | 30 | 657 nM |  |
| Cc1ncc2nccn2c1-c1ccc(Oc2nccc3occc23)cc1 [Example 172, 5-[4-(furo[3,2-c]pyridin-4-yloxy)phenyl]-6-methylimidazo[1,2-a]pyrazine] | 32.7 | 408 nM |  |
| COc1cc(Oc2nccc3occc23)ccc1-c1c(C)ncc2nccn12 [Example 173, 5-[4-(furo[3,2-c]pyridin-4-yloxy)-2-methoxyphenyl]-6-methylimidazo[1,2-a]pyrazine] | 36.8 | 564 nM |  |
| Cc1cc(Oc2nccc3occc23)ccc1-c1cccc2nccn12 [Example 174, 4-[4-(imidazo[1,2-a]pyridin-5-yl)-3-methylphenoxy]furo[3,2-c]pyridine] |  | 200 nM | 37.9 |
| COc1cc(Oc2nccc3occc23)ccc1-c1cccnc1C [Example 181, 4-[3-methoxy-4-(2-methylpyridin-3-yl)phenoxy]furo[3,2-c]pyridine] | 53.1 | 803 nM |  |
| CCCc1noc(COc2cc(Oc3nccc4occc34)ccc2-c2nccnc2C)n1 [Example 182, 4-{4-(3-methylpyrazin-2-yl)-3-[(3-propyl-1,2,4-oxadiazol-5-yl)methoxy]phenoxy}furo[3,2-c]pyridine, formate salt] | 58 | 641 nM |  |
| Cc1ncccc1-c1ccc(Oc2nccc3occc23)cc1 [Example 184, 4-[4-(2-methylpyridin-3-yl)phenoxy]furo[3,2-c]pyridine] | 63.3 | 881 nM |  |
| Cc1noc(C)c1COc1cc(Oc2nccc3occc23)ccc1-c1cccc2nccn12 [Example 186, 4-{3-[(3,5-dimethyl-1,2-oxazol-4-yl)methoxy]-4-(imidazo[1,2-a]pyridin-5-yl)phenoxy}furo[3,2-c]pyridine, trifluoroacetate salt] | 64.6 | 1020 nM |  |

The remaining lines, values ahead:

| Ki [1, 3] [nM] | EC50 [2] | Ki [1, 4] [nM] | Structure (SMILES) |
| --- | --- | --- | --- |
| 402 | 2160 nM |  | Cc1cc(Oc2nccc3occc23)ccc1-c1cnncc1C [Example 154, 4-[3-methyl-4-(5-methylpyridazin-4-yl)phenoxy]furo[3,2-c]pyridine] |
| 138 | 1010 nM |  | Cc1cc(Sc2nccc3occc23)ccc1-c1c(C)ncnc1C [Example 155, 4-{[4-(4,6-dimethylpyrimidin-5-yl)-3-methylphenyl]sulfanyl}furo[3,2-c]pyridine] |
| 1820 | > 15100 nM |  | Cc1ncnc(C)c1-c1ccc(Oc2nccc3occc23)c2c1OCO2 [Example 156, 4-{[7-(4,6-dimethylpyrimidin-5-yl)-1,3-benzodioxol-4-yl]oxy}furo[3,2-c]pyridine] |
| 354 | 3520 nM |  | CCOc1nncc(C)c1-c1ccc(Oc2nccc3occc23)cc1C [Example 157, 4-[4-(3-ethoxy-5-methylpyridazin-4-yl)-3-methylphenoxy]furo[3,2-c]pyridine] |
| 280 | 2690 nM |  | Cc1ncnc(C)c1-c1ccc(Oc2nccc3occc23)c2cccnc12 [Example 158, 8-(4,6-dimethylpyrimidin-5-yl)-5-(furo[3,2-c]pyridin-4-yloxy)quinoline] |
| 11.6 | 212 nM |  | Cc1cc(Oc2nccc3occc23)ccc1-c1c(C)nn(C)c(=O)c1C [Example 159, 5-[4-(furo[3,2-c]pyridin-4-yloxy)-2-methylphenyl]-2,4,6-trimethylpyridazin-3(2H)-one] |
| 12.8 | 389 nM |  | Cc1cc(Oc2nccc3occc23)ccc1-c1c(C)ncnc1N1CC[C@H](F)C1 [Example 163, 4-(4-{4-[(3S)-3-fluoropyrrolidin-1-yl]-6-methylpyrimidin-5-yl}-3-methylphenoxy)furo[3,2-c]pyridine, formate salt] |
| 15.2 | 625 nM |  | Cc1cc(Oc2nccc3occc23)ccc1-c1c(C)ncnc1N1Cc2cnn(C)c2C1 [Example 164, 4-{3-methyl-4-[4-methyl-6-(1-methyl-4,6-dihydropyrrolo[3,4-c]pyrazol-5(1H)-yl)pyrimidin-5-yl]phenoxy}furo[3,2-c]pyridine, formate salt] |
| 15.6 | 182 nM |  | Cc1cc(Oc2nccc3occc23)ccc1-c1c(C)ncnc1N(C)C [Example 165, 5-[4-(furo[3,2-c]pyridin-4-yloxy)-2-methylphenyl]-N,N,6-trimethylpyrimidin-4-amine, trifluoroacetate salt] |
| 24.4 | 354 nM |  | Cc1cc(Oc2nccc3occc23)ccc1-c1c(C)ncnc1N1CC=CC1 [Example 167, 4-{4-[4-(2,5-dihydro-1H-pyrrol-1-yl)-6-methylpyrimidin-5-yl]-3-methylphenoxy}furo[3,2-c]pyridine, trifluoroacetate salt] |
| 29.2 | 150 nM |  | COc1cc(Oc2nccc3occc23)ccc1-c1c(C)cnnc1C [Example 169, 4-[4-(3,5-dimethylpyridazin-4-yl)-3-methoxyphenoxy]furo[3,2-c]pyridine] |
| 31.1 | 487 nM |  | COc1cnnc(C)c1-c1ccc(Oc2nccc3occc23)cc1C [Example 171, 4-[4-(5-methoxy-3-methylpyridazin-4-yl)-3-methylphenoxy]furo[3,2-c]pyridine] |
| 41.4 | 475 nM |  | Cc1cc(Oc2nccc3occc23)ccc1-c1c(C)ncnc1N1Cc2cncnc2C1 [Example 175, 6-{5-[4-(furo[3,2-c]pyridin-4-yloxy)-2-methylphenyl]-6-methylpyrimidin-4-yl}-6,7-dihydro-5H-pyrrolo[3,4-d]pyrimidine, formate salt] |
| 44.2 | 780 nM |  | Cc1cc(Oc2nccc3occc23)ccc1-c1c(C)ccnc1C#N [Example 176, 3-[4-(furo[3,2-c]pyridin-4-yloxy)-2-methylphenyl]-4-methylpyridine-2-carbonitrile] |
| 46.4 | 2550 nM |  | Cc1cc(Oc2nccc3occc23)ccc1-c1nc(=O)[nH]nc1C [Example 177, 5-[4-(furo[3,2-c]pyridin-4-yloxy)-2-methylphenyl]-6-methyl-1,2,4-triazin-3(2H)-one] |
| 46.4 | 1160 nM |  | Cc1cc(Oc2nccc3occc23)ccc1-c1c(C)ncnc1N1CCCC1 [Example 178, 4-{3-methyl-4-[4-methyl-6-(pyrrolidin-1-yl)pyrimidin-5-yl]phenoxy}furo[3,2-c]pyridine, trifluoroacetate salt] |
| 47.2 | 921 nM |  | Cc1cc(Oc2nccc3occc23)ccc1-c1c(C)ncnc1N1CCC(CO)C1 (stereo not shown) [Example 179, (1-{5-[4-(furo[3,2-c]pyridin-4-yloxy)-2-methylphenyl]-6-methylpyrimidin-4-yl}pyrrolidin-3-yl)methanol, formate salt] |
| 52.9 | 812 nM |  | Cc1cc(Oc2nccc3occc23)ccc1-c1c(C)ncnc1N1CCC[C@H]1CO [Example 180, [(2S)-1-{5-[4-(furo[3,2-c]pyridin-4-yloxy)-2-methylphenyl]-6-methylpyrimidin-4-yl}pyrrolidin-2-yl]methanol, formate salt] |
| 62.4 | 1400 nM |  | Cc1cc(Oc2nccc3occc23)ccc1-c1c(C)ncnc1N1Cc2cccnc2C1 [Example 183, 4-{4-[4-(5,7-dihydro-6H-pyrrolo[3,4-b]pyridin-6-yl)-6-methylpyrimidin-5-yl]-3-methylphenoxy}furo[3,2-c]pyridine, formate salt] |
| 64.2 | 1160 nM |  | Cc1cc(Oc2nccc3occc23)ccc1-c1c(C)ncnc1N1CC[C@@H](F)C1 [Example 185, 4-(4-{4-[(3R)-3-fluoropyrrolidin-1-yl]-6-methylpyrimidin-5-yl}-3-methylphenoxy)furo[3,2-c]pyridine, trifluoroacetate salt] |
| 65.7 | 984 nM |  | Cc1cc(Oc2nccc3occc23)ccc1-c1c(C)ncnc1N1CCCC1CO (stereo not shown) [Example 187, (1-{5-[4-(furo[3,2-c]pyridin-4-yloxy)-2-methylphenyl]-6-methylpyrimidin-4-yl}pyrrolidin-2-yl)methanol, trifluoroacetate salt] |
